Results published in patent US20190119284A1, “ErbB Inhibitors and Uses Thereof” (The Regents of the University of California, priority 2016, published 2019).

How the values were obtained:
[1] = molecular target: T1, HER3 intracellular domain (665-1323) (Homo sapiens, UniProt P21860); experiment: HER3 intracellular domain autophosphorylation on vesicles; assay type: biochemical; conditions: 1 μM HER3 intracellular domain, 200 μM ATP
T1 construct: The HER3 intracellular domain (665-1323) was concentrated on vesicles; made in house
T1 sequence (P21860 684-1342): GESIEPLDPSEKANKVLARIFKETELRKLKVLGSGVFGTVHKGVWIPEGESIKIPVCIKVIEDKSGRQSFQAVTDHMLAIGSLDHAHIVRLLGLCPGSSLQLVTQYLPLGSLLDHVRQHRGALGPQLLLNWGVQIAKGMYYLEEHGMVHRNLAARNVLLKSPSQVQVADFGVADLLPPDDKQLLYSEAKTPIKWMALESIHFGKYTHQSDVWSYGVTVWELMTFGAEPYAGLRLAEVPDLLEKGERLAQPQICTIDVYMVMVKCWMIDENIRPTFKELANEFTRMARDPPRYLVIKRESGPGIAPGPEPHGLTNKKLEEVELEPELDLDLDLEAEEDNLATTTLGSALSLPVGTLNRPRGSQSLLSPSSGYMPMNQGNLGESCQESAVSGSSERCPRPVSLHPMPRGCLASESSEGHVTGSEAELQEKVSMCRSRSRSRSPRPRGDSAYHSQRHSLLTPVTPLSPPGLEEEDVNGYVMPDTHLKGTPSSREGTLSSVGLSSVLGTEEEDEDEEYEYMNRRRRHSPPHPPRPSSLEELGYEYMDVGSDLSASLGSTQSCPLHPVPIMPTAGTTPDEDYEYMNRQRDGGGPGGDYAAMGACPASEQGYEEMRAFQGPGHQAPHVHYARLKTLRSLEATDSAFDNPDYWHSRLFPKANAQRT
Method: FIG. 11. […] 1 μM of The HER3 intracellular domain (665-1323) was concentrated on vesicles and incubated with 200 μM ATP in the presence of varying concentrations of compound 2. HER3 kinase activity inhibition was evaluated by western blotting for autophosphorylation of HER3.

[2] = molecular target: T2, HER2 kinase domain (Homo sapiens, UniProt P04626); experiment: In vitro HER2 Kinase Assay; assay type: biochemical; conditions: 50 μM ATP
T2 construct: In vitro kinase assays with the HER2 kinase domain (SignalChem) were performed in triplicate; purchased SignalChem
T2 sequence (P04626 720-987 limits assumed): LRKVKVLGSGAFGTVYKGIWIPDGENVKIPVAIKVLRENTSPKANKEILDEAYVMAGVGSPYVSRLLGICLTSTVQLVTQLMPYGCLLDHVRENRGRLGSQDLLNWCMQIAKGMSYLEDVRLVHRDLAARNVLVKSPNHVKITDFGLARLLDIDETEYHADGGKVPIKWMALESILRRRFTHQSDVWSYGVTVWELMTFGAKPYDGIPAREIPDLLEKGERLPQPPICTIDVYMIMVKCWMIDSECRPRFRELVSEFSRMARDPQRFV
Method: In vitro HER2 Kinase Assay. In vitro kinase assays with the HER2 kinase domain (SignalChem) were performed in triplicate as follows. To 9 μL of a 2.5× solution of kinase and substrate in reaction buffer was added 3 μL of a 5× DMSO or inhibitor dilution in 10% DMSO:water. The inhibitor/kinase solution was incubated at room temperature for 10 minutes. The kinase assay was initiated by the addition of 3 μL of a 5× solution of ATP, and ran for 15 minutes. The final reaction conditions were 50 mM Tris (pH7.4), 5 mM MnCl2, 0.01% Tween-20, 2 mM DTT, 100 μM E4Y substrate (SignalChem), 15 nM HER2, 2% DMSO, 50 μM ATP, and 1 μCi γ^32P-ATP. After 15 minutes, 3 μL of each reaction was pipetted onto phosphocellulose sheets (P81, Whatman) and allowed to dry. The sheets were then washed 4×5 min with a solution of 0.5% phosphoric acid, dried, and exposed to a phosphor screen overnight. Phosphorimaging was conducted on a Typhoon 9500, image intensities were quantified in ImageQuant 5.2, normalized to the DMSO control and plotted in GraphPad Prism 6.

[3] = molecular target: T3, ErbB3-ICD665-1323 (Homo sapiens, UniProt P21860); experiment: HER3 Autophosphorylation Assay; assay type: biochemical; conditions: purified clustered HER3 intracellular domain
T3 construct: The HER3 intracellular domain (665-1323) was concentrated on vesicles; made in house
T3 sequence (P21860 684-1342): as the sequence (P21860 684-1342) above
Method: HER3 Autophosphorylation Assay. ErbB3-ICD^665-1323 wild-type expression and purification was performed exactly as previously described. To monitor the change in autophosphorylation, 1 μM ErbB3-ICD^665-1323 protein was incubated with inhibitors (varied concentrations noted in the figure) and DOGS-Ni-NTA (prepared as described in Zhang et al.[4]) in 100 mM MOPS pH 7.4, containing 200 mM NaCl, divalent cations (2 mM MnCl2 plus 5 mM MgCl2), 5% glycerol, 0.1 mM DTT and 200 μM ATP for 1 hour at 25 ° C., and the reactions were stopped by adding 50 mM EDTA and SDS-PAGE gel-loading buffer for rapid qualitative comparison of autophosphorylation by SDS-PAGE and immunoblotting with anti-phosphotyrosine (pY20) and anti-(His)5.

[4] = molecular target: P70S6K1 (Homo sapiens, UniProt P23443); experiment: Nanosyn in vitro kinase profiling: P70S6K1; assay type: biochemical
Sequence of P70S6K1 (P23443 whole entry, species assumed): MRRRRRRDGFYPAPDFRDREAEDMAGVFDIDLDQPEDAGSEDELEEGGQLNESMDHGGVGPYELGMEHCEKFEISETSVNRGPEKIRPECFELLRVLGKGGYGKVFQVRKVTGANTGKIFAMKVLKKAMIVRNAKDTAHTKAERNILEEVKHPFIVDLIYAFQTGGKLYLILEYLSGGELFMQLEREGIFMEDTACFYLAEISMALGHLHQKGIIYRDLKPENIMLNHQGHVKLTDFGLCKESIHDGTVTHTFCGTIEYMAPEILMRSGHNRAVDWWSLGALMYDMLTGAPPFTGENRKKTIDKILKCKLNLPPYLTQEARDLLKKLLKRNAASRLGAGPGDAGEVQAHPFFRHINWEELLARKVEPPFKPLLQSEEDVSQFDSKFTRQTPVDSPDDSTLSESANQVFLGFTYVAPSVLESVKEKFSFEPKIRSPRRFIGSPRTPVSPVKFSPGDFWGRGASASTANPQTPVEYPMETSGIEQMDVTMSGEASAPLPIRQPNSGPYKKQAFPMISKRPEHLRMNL
Method: (§1) This was confirmed by in vitro profiling against a panel of kinases, with compound 2 only showing potent inhibition of EGFR and Ab1 (Table 2).
(§2) In vitro Kinome Screen. In vitro profiling of compound 2 at 100 nM was conducted by Nanosyn.

[5] = molecular target: DYRK1B (Homo sapiens, UniProt Q9Y463); experiment: Nanosyn in vitro kinase profiling: DYRK1B; assay type: biochemical
Sequence of DYRK1B (Q9Y463 whole entry, species assumed): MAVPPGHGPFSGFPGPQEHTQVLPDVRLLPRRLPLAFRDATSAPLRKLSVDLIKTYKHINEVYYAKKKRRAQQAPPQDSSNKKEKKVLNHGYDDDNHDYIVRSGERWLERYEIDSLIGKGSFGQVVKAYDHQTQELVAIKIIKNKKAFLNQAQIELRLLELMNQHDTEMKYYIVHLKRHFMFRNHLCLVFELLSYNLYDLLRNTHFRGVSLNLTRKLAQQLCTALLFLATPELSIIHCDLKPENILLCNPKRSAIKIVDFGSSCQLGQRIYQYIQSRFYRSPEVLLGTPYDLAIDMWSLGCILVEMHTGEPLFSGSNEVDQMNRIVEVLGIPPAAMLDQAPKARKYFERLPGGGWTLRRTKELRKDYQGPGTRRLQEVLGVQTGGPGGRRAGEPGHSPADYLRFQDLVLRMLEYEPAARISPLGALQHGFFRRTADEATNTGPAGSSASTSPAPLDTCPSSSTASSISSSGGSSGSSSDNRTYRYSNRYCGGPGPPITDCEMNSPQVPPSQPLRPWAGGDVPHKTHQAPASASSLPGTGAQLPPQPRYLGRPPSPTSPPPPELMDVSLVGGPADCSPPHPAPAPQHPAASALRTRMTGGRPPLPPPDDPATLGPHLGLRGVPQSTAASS
Method: as §1, §2

[6] = system: BT-474 cells; experiment: 72 h proliferation of BT-474 cells in the presence or absence of NRG; assay type: cell-based; conditions: BT-474, 72 h dose response +/- NRG
Method: FIGS. 1A-1E. NRG rescues HER2 over-expressing cancer cells from HER2 inhibitors. […] FIG 1B: Same experiment as depicted in FIG. 1A, but with the inhibitor TAK-285. FIG. 1C: The ability of NRG to rescue SK-BR-3 and BT-474 cell proliferation from HER2 inhibitors is dose dependent. Cells were treated with 1 μM of the indicated inhibitor in the presence of varying concentrations of NRG, and proliferation was read out after 72 h (mean±SD, n=3). […] FIG. 1E: Cartoon schematic of the EGFR family kinase domain asymmetric dimer. The C-terminal domain of the ‘activator’ kinase (right) interacts with the N-terminal portion of the ‘receiver’ kinase (left). This interaction stabilizes the active conformation of the receiver kinase identified by the ‘in’ conformation of the receiver kinase's α-C helix and the ordered extension of the activation loop.
FIGS. 5A-5D. […] FIG. 5A: Chemical structure of compound 3 (also referred to herein as compound 178). FIG. 5B: Proliferation curves for compound 3 against the Ba/F3 cell line panel (mean±SD, n=3). […] FIG. 5D: The same assay in FIG. 2A was performed with compound 3 in SK-BR-3 cells.

[7] = system: NCI-H1781 cells; experiment: 72 h proliferation of NCI-H1781 cells; assay type: cell-based; conditions: NCI-H1781, 72 h
[8] = system: HER2/HER3 signaling in SK-BR-3 cells; experiment: HER2/HER3 signaling in SK-BR-3 cells (western blot); assay type: cell-based
From the text: FIGS. 1A-1E. […] FIG. 1E: Cartoon schematic of the EGFR family kinase domain asymmetric dimer. The C-terminal domain of the ‘activator’ kinase (right) interacts with the N-terminal portion of the ‘receiver’ kinase (left). This interaction stabilizes the active conformation of the receiver kinase identified by the ‘in’ conformation of the receiver kinase's α-C helix and the ordered extension of the activation loop.

[9] = system: HER2/HER3 signaling in CW-2 cells (HER3 E928G); experiment: HER2/HER3 signaling in CW-2 cells +/- NRG, 1 h; assay type: cell-based; conditions: CW-2, dose response
[10] = system: HER2 mutants biased towards the active conformation (NCI-H1781 cells); experiment: signaling in NCI-H1781 cells after 15 min; assay type: cell-based; conditions: NCI-H1781, dose response
[11] = system: 2YFTM/HER3wt and 2YFTM/3TM Ba/F3 cells; experiment: Ba/F3 proliferation assay, HER2 gatekeeper mutant lines; assay type: cell-based; conditions: Ba/F3 lines with methionine gatekeeper mutation in HER2
Method: Proliferation Assays. […] For all normalized assays, proliferation was normalized to the DMSO control condition. All graphs were plotted in GraphPad Prism 6 and fit with a non-linear regression of the log(inhibitor) vs response with a variable slope where shown. All graphs are averages (+/−standard deviation) of biological triplicates each performed in technical triplicate unless otherwise noted. If only one biological replicate was performed standard deviations were derived from the technical replicates.

Compound: COc1ccc(-c2ccco2)cc1Nc1ncnc2[nH]nc(-c3ccco3)c12 [compound 2, 3-(furan-2-yl)-N-(5-(furan-2-yl)-2-methoxyphenyl)-1H-pyrazolo[3,4-d]pyrimidin-4-amine]
- binding to HER3 / inhibition of HER3 autophosphorylation [1]: binds to the active site of HER3
- potency against HER2 in vitro [2]: equipotent to lapatinib
- inhibition of HER3 auto-phosphorylation [3]: able to inhibit
- inhibition at 0.1 µM ([4]; compound at 100 nM): 8.88%
- inhibition at 1 µM ([4]; compound at 1 μM): 38.4%
- inhibition at 0.1 µM ([5]; compound at 100 nM): 4.01%
- inhibition at 1 µM ([5]; compound at 1 μM): 22.6%

Compound: COc1ccc(-c2ccoc2)cc1Nc1ncnc2[nH]cc(-c3cc[nH]n3)c12 [compound 3, N-(5-(furan-3-yl)-2-methoxyphenyl)-5-(1H-pyrazol-3-yl)-7H-pyrrolo[2,3-d]pyrimidin-4-amine]
- sensitivity of proliferation inhibition to NRG [6]: insensitive to the presence of NRG
- sensitivity of cell proliferation [7]: sensitive

Compound: CS(=O)(=O)CCNCc1ccc(-c2ccc3ncnc(Nc4ccc(OCc5cccc(F)c5)c(Cl)c4)c3c2)o1 [lapatinib]
- activation of EGFR family members ([8]; SK-BR-3, 1 μM lapatinib +/- NRG, 1 h): HER3 is the only member of the EGFR family who remains activated
- HER2/HER3 signaling after NRG pre-treatment ([8]; SK-BR-3, NRG or vehicle 15 min then dose response 15 min): NRG pre-treatment rescues HER2/HER3 signaling
- efficacy on signaling, 15 min pre-treat vs simultaneous addition with NRG ([8]; SK-BR-3, serum starved 24 h): reduced efficacy of lapatinib when simultaneously added with NRG
- HER2/HER3 signaling over a time-course ([8]; SK-BR-3 treated with lapatinib, NRG, or both): NRG rescues p-HER3 and all downstream signaling at all time points examined
- HER2/HER3 signaling +/- NRG [9]: NRG rescues HER2/HER3 signaling
- binding to HER2 mutants judged by signaling after short treatment [10]: does not efficiently bind to HER2 mutants biased towards the active conformation
- inhibition of proliferation [11]: unable to inhibit the proliferation
